Experimental data from PMC5066209, “Multiple cellobiohydrolases and cellobiose phosphorylases cooperate in the ruminal bacterium Ruminococcus albus 8 to degrade cellooligosaccharides” (Scientific Reports, 2016).

What was measured:
Ra3055 TM2 [1] = molecular target: T1, Ra3055 TM2 (Hominimerdicola alba, UniProt E9SHH5); experiment: cellobiose release by HPAEC-PAD, Michaelis-Menten fit; format: biochemical; details: 0.01-30 mM cellotetraose, 10 min; pH and temperature of kinetics not stated
T1 construct: gene CUS_6909; truncation without C-terminal CBM37 (CBM4_9 - Ig-like - GH9); pET-46, E. coli
From the text: cellobiose release by HPAEC-PAD, Michaelis-Menten fit on Ra3055 TM2

Ra3055 TM4 = molecular target: T2, Ra3055 TM4 (Hominimerdicola alba, UniProt E9SHH5); experiment: as above; format: biochemical; details: 0.01-30 mM cellotetraose, 10 min; pH and temperature of kinetics not stated
T2 construct: gene CUS_6909; GH9 catalytic domain only; pET-46, E. coli
From the text: cellobiose release by HPAEC-PAD, Michaelis-Menten fit on Ra3055 TM4

Ra3055 TM1 [2] = molecular target: T3, Ra3055 TM1 (Hominimerdicola alba, UniProt E9SHH5); experiment: as above; format: biochemical; details: 0.01-30 mM cellotetraose, 10 min; pH and temperature of kinetics not stated
T3 construct: gene CUS_6909; truncation without N-terminal CBM4_9 (Ig-like - GH9 - CBM37); pET-46, E. coli
From the text: cellobiose release by HPAEC-PAD, Michaelis-Menten fit on Ra3055 TM1

Ra3055 TM3 [3] = molecular target: T4, Ra3055 TM3 (Hominimerdicola alba, UniProt E9SHH5); experiment: as above; format: biochemical; details: 0.01-30 mM cellotetraose, 10 min; pH and temperature of kinetics not stated
T4 construct: gene CUS_6909; truncation to Ig-like - GH9 (no CBM4_9, no CBM37); pET-46, E. coli
From the text: cellobiose release by HPAEC-PAD, Michaelis-Menten fit on Ra3055 TM3

Ra3055 TM3 [4] = molecular target: T4, Ra3055 TM3; experiment: isothermal titration calorimetry; format: binding; details: 50 mM sodium phosphate, 150 mM NaCl, pH 7.5; single-site fit
Ra3055 TM1 [5] = molecular target: T3, Ra3055 TM1; experiment: isothermal titration calorimetry; format: binding; details: 50 mM sodium phosphate, 150 mM NaCl, pH 7.5; single-site fit
Ra3055 (WT) = molecular target: T5, Ra3055 (WT) (Hominimerdicola alba, UniProt E9SHH5); experiment: isothermal titration calorimetry; format: binding; details: 50 mM sodium phosphate, 150 mM NaCl, pH 7.5; single-site fit
T5 construct: gene CUS_6909; full-length multimodular CBM4_9 - Ig-like - GH9 - CBM37

Ra3055 TM2 [6] = molecular target: T1, Ra3055 TM2; experiment: isothermal titration calorimetry; format: binding; details: 50 mM sodium phosphate, 150 mM NaCl, pH 7.5; single-site fit

T1 sequence (E9SHH5 entry or part of it): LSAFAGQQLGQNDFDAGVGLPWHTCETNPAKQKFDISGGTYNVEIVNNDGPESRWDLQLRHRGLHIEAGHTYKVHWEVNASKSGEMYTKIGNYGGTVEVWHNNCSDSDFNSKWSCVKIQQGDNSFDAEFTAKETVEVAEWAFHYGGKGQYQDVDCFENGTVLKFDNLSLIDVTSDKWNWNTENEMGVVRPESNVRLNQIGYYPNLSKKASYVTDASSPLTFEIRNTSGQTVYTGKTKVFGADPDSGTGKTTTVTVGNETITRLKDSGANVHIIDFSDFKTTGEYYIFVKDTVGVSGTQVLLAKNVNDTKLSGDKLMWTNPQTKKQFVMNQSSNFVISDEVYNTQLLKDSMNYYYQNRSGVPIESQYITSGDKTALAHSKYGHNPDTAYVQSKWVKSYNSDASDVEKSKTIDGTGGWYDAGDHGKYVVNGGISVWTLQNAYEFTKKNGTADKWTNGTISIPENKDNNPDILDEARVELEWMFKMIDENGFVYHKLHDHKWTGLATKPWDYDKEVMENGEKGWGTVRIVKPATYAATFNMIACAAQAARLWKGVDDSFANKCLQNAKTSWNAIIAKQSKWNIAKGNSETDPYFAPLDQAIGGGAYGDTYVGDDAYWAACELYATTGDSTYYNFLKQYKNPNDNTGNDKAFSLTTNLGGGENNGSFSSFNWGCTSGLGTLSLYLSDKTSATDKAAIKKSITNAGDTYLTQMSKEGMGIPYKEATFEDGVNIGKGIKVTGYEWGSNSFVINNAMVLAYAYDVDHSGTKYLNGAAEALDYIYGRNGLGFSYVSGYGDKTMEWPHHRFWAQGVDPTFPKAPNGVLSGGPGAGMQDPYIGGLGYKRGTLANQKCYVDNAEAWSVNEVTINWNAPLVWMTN
T4 sequence (E9SHH5 entry or part of it): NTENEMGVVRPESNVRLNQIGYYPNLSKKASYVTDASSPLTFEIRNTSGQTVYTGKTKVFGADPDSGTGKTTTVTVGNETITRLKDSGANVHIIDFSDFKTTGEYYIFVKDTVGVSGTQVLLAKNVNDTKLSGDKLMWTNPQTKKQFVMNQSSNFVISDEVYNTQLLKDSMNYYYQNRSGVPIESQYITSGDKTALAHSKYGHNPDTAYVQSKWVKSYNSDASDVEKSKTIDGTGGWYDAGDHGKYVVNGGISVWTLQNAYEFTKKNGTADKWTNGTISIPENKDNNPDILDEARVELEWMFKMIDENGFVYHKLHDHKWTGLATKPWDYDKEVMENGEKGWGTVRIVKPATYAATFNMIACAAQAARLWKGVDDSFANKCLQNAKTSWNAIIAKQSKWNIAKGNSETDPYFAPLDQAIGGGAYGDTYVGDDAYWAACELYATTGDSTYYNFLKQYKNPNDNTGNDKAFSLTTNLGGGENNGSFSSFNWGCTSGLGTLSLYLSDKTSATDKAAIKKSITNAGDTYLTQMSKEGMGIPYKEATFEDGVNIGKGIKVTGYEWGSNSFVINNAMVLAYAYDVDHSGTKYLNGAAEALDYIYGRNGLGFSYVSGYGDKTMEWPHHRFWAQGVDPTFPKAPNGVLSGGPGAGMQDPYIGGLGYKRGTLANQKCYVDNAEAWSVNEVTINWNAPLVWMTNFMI
T3 sequence (E9SHH5 entry or part of it): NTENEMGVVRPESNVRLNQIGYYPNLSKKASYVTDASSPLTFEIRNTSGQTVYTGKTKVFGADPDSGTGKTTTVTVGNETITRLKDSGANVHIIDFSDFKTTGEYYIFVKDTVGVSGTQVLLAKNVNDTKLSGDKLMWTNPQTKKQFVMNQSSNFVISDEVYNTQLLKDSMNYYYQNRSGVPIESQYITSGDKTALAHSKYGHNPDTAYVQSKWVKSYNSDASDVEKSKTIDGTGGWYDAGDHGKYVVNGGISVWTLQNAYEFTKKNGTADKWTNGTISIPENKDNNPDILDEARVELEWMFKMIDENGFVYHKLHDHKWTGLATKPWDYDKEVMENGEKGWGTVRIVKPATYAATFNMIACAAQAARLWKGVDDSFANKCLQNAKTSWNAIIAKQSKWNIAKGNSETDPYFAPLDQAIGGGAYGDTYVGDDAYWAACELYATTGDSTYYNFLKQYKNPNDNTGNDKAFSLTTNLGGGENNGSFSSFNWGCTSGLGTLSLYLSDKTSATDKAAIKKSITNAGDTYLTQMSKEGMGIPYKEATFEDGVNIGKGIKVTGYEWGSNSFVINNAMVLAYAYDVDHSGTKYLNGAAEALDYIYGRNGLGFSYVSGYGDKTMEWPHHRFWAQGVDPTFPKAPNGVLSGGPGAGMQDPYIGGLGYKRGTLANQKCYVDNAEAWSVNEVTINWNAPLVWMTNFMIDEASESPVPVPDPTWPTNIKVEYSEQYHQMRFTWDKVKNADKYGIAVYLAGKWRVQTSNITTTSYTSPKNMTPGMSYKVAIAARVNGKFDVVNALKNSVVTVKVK
T5 sequence (E9SHH5 entry or part of it): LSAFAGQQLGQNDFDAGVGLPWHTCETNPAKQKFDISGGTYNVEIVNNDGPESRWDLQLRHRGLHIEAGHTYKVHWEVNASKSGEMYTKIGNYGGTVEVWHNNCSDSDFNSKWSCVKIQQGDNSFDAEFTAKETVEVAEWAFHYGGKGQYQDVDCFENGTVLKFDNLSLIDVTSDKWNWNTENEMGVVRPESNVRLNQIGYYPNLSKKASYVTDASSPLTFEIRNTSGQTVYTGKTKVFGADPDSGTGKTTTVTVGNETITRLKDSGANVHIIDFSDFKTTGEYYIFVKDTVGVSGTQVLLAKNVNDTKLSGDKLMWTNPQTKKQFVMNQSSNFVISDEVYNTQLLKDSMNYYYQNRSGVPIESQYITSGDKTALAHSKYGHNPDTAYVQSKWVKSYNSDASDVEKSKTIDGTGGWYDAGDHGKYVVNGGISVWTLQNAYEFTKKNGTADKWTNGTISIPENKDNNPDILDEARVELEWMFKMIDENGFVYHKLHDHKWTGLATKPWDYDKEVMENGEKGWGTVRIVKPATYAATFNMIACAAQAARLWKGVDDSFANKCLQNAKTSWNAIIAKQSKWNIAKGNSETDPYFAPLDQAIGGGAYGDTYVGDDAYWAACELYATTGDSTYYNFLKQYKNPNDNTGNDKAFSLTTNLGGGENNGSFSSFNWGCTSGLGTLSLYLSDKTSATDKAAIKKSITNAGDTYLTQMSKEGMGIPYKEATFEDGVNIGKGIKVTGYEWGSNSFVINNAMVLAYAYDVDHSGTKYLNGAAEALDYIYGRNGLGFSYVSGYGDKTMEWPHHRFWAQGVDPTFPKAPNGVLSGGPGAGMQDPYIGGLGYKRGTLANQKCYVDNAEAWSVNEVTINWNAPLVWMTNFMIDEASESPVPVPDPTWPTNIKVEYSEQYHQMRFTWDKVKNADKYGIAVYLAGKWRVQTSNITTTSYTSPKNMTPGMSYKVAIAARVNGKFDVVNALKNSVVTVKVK
T2 sequence (E9SHH5 entry or part of it): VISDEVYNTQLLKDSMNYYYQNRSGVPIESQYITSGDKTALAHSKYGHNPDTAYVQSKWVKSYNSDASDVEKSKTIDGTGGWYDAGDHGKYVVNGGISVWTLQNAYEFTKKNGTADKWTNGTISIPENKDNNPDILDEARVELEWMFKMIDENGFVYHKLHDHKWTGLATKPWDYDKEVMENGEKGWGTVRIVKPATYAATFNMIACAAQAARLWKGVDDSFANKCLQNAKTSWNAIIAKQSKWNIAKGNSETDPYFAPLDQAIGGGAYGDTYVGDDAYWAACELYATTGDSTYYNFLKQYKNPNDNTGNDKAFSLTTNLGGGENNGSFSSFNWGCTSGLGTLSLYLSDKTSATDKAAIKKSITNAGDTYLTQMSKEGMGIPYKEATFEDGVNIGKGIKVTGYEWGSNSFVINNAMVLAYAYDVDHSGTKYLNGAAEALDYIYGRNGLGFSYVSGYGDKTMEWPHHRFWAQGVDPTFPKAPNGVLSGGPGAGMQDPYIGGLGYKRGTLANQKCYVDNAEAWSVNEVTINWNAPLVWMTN

Compound | Km (Ra3055 TM2 [1]) [mM] | Km (Ra3055 TM4) [mM] | Km (Ra3055 TM1 [2]) [mM] | Km (Ra3055 TM3 [3]) [mM] | Ka (Ra3055 TM3 [4]) | Ka (Ra3055 TM1 [5]) | Ka (Ra3055 (WT)) | Ka (Ra3055 TM2 [6])
OC[C@H]1O[C@@H](O[C@H]2[C@H](O)[C@@H](O)[C@H](O[C@H]3[C@H](O)[C@@H](O)[C@H](O[C@H]4[C@H](O)[C@@H](O)C(O)O[C@@H]4CO)O[C@@H]3CO)O[C@@H]2CO)[C@H](O)[C@@H](O)[C@@H]1O (some centres unmarked) [G4, cellotetraose] | 5.6 ± 0.9 | 7.9 ± 3.6 | 4.5 ± 0.3 | 2.9 ± 0.1 |  |  |  | 
OC[C@H]1O[C@@H](O[C@H]2[C@H](O)[C@@H](O)[C@H](O[C@H]3[C@H](O)[C@@H](O)[C@H](O[C@H]4[C@H](O)[C@@H](O)[C@H](O[C@H]5[C@H](O)[C@@H](O)C(O)O[C@@H]5CO)O[C@@H]4CO)O[C@@H]3CO)O[C@@H]2CO)[C@H](O)[C@@H](O)[C@@H]1O (some centres unmarked) [G5, cellopentaose] |  |  |  |  | 5.06E5±4.41E4 | 6.38E5±1.57E5 | 2.94E4±7.38E3 | 3.49E4±4.59E3
